Key:
Assay type in all cases: in vivo, mouse
PACAP−/− mice [1] = experiment: Catalepsy in the bar test after haloperidol; conditions: haloperidol 0.2 and 2 mg/kg intraperitoneally; PACAP−/− mice compared with wild-type mice
Experimental: (§1) Motor activity was quantified using an automated video-tracking system, the video image motion analyzer AXIS-90 (Neuroscience, Inc., Tokyo, Japan). A computer program was used to overlay grid lines defining 25 separate regions within a circular open field (60 cm in diameter, 30 cm deep, illuminated with white light, 100 lux). Paths taken by each mouse were stored permanently as x-y coordinate sequences, and parameters indicative of locomotor activity were assessed. Vertical activity (rearing and jumping) were also scored. In the haloperidol study, the drug was injected intraperitoneally 20 min prior to monitoring locomotor activity, which was measured for 90 min by another activity-monitoring system, Supermex (multi-channel system; Muromachi Kikai Co., Ltd., Tokyo, Japan). Subsequently, the same mice were tested for catalepsy in the bar test as previously described in Boulay, D., Depoortere, R., Oblin, A., Sanger, D. J., Schoemaker, H. & Perrault, G. (2000) Eur. J. Pharmacol. 391, 63-73.
(§2) Effects of haloperidol on locomotor activity. (A) PACAP+/+and PACAP−/− mice (n =6-7) were injected intraperitoneally with 0.2 and 2 mg/kg haloperidol or vehicle (0.5% carboxymethyl cellulose sodium) and 20 min later placed in the open field for automated measurement of locomotor parameters over a 90 min test period. (B) Subsequently, each mouse was tested for catalepsy in the bar test. […]

PACAP−/− mice [2] = experiment: Effect of haloperidol on locomotor hyperactivity in the open field; conditions: haloperidol 0.2 mg/kg intraperitoneally, 20 min before 90 min test, versus vehicle
Experimental: as §1, §2

wild-type mice = experiment: Effect of haloperidol on locomotor activity in the open field; conditions: haloperidol 0.2 mg/kg intraperitoneally, 20 min before 90 min test, versus vehicle
Experimental: as §1, §2

For `O=C(CCCN1CCC(O)(c2ccc(Cl)cc2)CC1)c1ccc(F)cc1` [Haloperidol, haloperidol], the “cataleptogenic effect (bar test)” value (PACAP−/− mice [1]) was “quite similar to that in wild-type mice”, the “reduction of hyperactivity (total locomotor activity)” value (PACAP−/− mice [2]) was 65±10 % reduction and the “impairment of locomotor activity (total activity)” value (wild-type mice) was 43±21 % reduction.

From patent US20020162128A1, “Non-human animal deficient in function of pituitary adenylate cyclase-activating polypeptide gene” (priority 2000, published 2002)
